Converted amounts (≈) assume the structure as drawn. Where a SMILES comes first, the peptide text is derived from it. [ ]: non-standard residue; d: D form.
Tests used:
P. aeruginosa PA05 = test: MIC/MBC broth microdilution; assay type: cell-based, Pseudomonas aeruginosa; conditions: D-BMAP18, strain PA05, n = 6
Protocol: (§1) MIC values were determined using the broth microdilution method.

S. aureus SA3 = test: MIC broth microdilution; assay type: cell-based, Staphylococcus aureus; conditions: D-BMAP18, strain SA3, MH broth, 37°C 24 h, n = 6
Protocol: as §1

S. aureus SA4 = test: MIC broth microdilution; assay type: cell-based, Staphylococcus aureus; conditions: D-BMAP18, strain SA4, MH broth, 37°C 24 h, n = 6
Protocol: as §1

S. aureus SA5 = test: MIC broth microdilution; assay type: cell-based, Staphylococcus aureus; conditions: D-BMAP18, strain SA5, MH broth, 37°C 24 h, n = 6
Protocol: as §1

S. aureus SA7 = test: MIC broth microdilution; assay type: cell-based, Staphylococcus aureus; conditions: D-BMAP18, strain SA7, MH broth, 37°C 24 h, n = 6
Protocol: as §1

C57BL/6NCrl mice = test: In vivo acute toxicity, intratracheal; design: species or system mouse
Protocol: In vivo acute toxicity of D-BMAP18 was evaluated in C57BL/6NCrl mice (n = 5/group) (male; 22 g; 6 ± 2 week-old) obtained from Charles River Laboratories Italia S.r.l. (Calco, Milan, Italy). Mice were intra-tracheally challenged with increasing doses (1, 2, 4, and 8 mg/kg) of D-BMAP18 prepared in sterile distilled water. Control mice received vehicle only (sterile distilled water). General health and animal behavior (ruffled coats, huddled position, lack of retreat in handler's presence), weight loss, and survival were monitored daily over a 5-day period, comparatively to control mice. […] Subsequently, lungs were removed en bloc from the chest via sterile excision and immediately weighed. These experiments were carried out in accordance with the recommendations of the Guide for the Care and Use of Laboratory Animals of the National Institute of Health and in accordance with the ethical standards of the Animal Care Committee of the “G. d'Annunzio” University of Chieti-Pescara. The protocol was approved by the Animal Care Committee of the “G. d'Annunzio” University of Chieti-Pescara.

P. aeruginosa RP73 = assay type: in vivo, mouse; conditions: mouse, in vivo
Protocol: C57/Bl6NCrl mice (n = 8/group) were intratracheally challenged with 1 × 10^7 cells P. aeruginosa RP73 clinical strain, and 5 min later a single dose of D-BMAP18 at different concentrations (0.5, 1, and 2 mg/kg) was intratracheally administrated. Sterile distilled water alone or tobramycin [10 mg/kg] (Sigma-Aldrich S.r.l.), were used respectively as negative and positive control. […] Subsequently, lungs were homogenized (24,000 rpm) on ice in 1 ml of sterile PBS by using Ultra-Turrax T25-Basic homogenizer (IKA-Werke GmbH & Co. KG, Germany). Ten-fold serial dilutions of lung homogenates were plated on MH agar (Oxoid SpA), and the number of colony-forming units (CFU) was counted after incubation at 37°C for 24 h.

S. aureus SA1 = conditions: D-BMAP18; strain SA1; broth microdilution, MH broth, 37°C 24 h; n = 6
S. aureus SA2 = conditions: D-BMAP18; strain SA2; broth microdilution, MH broth, 37°C 24 h; n = 6

`CC(C)C[C@@H](NC(=O)[C@@H](CCCCN)NC(=O)[C@@H](CCCCN)NC(=O)[C@@H](Cc1ccccc1)NC(=O)[C@@H](CC(C)C)NC(=O)[C@@H](CCCCN)NC(=O)[C@@H](CCCCN)NC(=O)[C@@H](Cc1ccccc1)NC(=O)[C@@H](CCCCN)NC(=O)[C@@H](CCCCN)NC(=O)[C@@H](CCCNC(=N)N)NC(=O)[C@@H](Cc1ccccc1)NC(=O)[C@@H](CCCNC(=N)N)NC(=O)[C@@H](CCCCN)NC(=O)[C@@H](Cc1ccccc1)NC(=O)[C@@H](CCCNC(=N)N)NC(=O)CN)C(=O)N[C@H](CO)C(N)=O` [D-BMAP18] (H-G[dR][dF][dK][dR][dF][dR][dK][dK][dF][dK][dK][dL][dF][dK][dK][dL][dS]-NH2) showed an MIC (P. aeruginosa PA05; broth microdilution, MH broth, 37°C 24 h) of 4 µg/mL (≈ 1.71 µM), an MBC (P. aeruginosa PA05; kills at least 99.9% of inoculum) of 8 µg/mL (≈ 3.42 µM) and an MIC (S. aureus SA3) greater than 32 µg/mL. It also gave an MIC (S. aureus SA4) greater than 32 µg/mL, an MIC (S. aureus SA5) greater than 32 µg/mL and an MIC (S. aureus SA7) greater than 32 µg/mL. The “macroscopic lung pathology (four-point score)” value (C57BL/6NCrl mice; 1 mg/kg single intratracheal instillation, day 5 p.e., n = 5/group) was “No pulmonary damage”, the “macroscopic lung pathology, median score (four-point scoring)” value (C57BL/6NCrl mice; 2 mg/kg single intratracheal instillation, day 5 p.e., n = 5/group, p < 0.05 vs control) was 2.5 and the “macroscopic lung pathology, median score (four-point scoring)” value (C57BL/6NCrl mice; 8 mg/kg single intratracheal instillation, day 5 p.e., n = 5/group, p < 0.01 vs control) was 3. The “change in body weight, first 2 days” value (C57BL/6NCrl mice; 1, 2, 4, 8 mg/kg intratracheal, first 2 days p.e., regardless of dose, vs unexposed control) was “significant (p<0.01) decrease”, the “change in body weight” value (C57BL/6NCrl mice; 1-8 mg/kg intratracheal, over 5 days p.e., also at the lowest dose, dose-dependent) was “significant reduction in body weight” and the “trend between dose and macroscopic lung damage” value (P. aeruginosa RP73) was “not statistically significant”. The MIC (S. aureus SA1) was greater than 32 µg/mL and the MIC (S. aureus SA2) was greater than 32 µg/mL.
